System: NOMO1
Assay: cell viability relative to DMSO control; higher = less cytotoxic
Conditions: 48 h
Procedure, shortened: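 Viability, reported as a per-plate percentage of DMSO wells with cell-free wells as background, came from CellTiter-Glo One luminescence. Reading took place after 48 h at 37°C. Before that, NOMO1 or SEM (500 cells/well) or P12-Ichikawa (1000 cells/well) leukemia cells, adapted for at least four passages in each medium, were seeded in 1536-well plates (5 μl) and pin-dosed with library compounds in DMSO, 47 μM to 0.79 nM over 11 threefold points.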

[1] = HPLM + 10% dialyzed FBS, 0.000781 µM
[2] = HPLM + 10% dialyzed FBS, 0.00234 µM
[3] = HPLM + 10% dialyzed FBS, 0.00702 µM
[4] = HPLM + 10% dialyzed FBS, 0.0211 µM
[5] = HPLM + 10% dialyzed FBS, 0.0632 µM
[6] = HPLM + 10% dialyzed FBS, 0.19 µM
[7] = HPLM + 10% dialyzed FBS, 0.569 µM
[8] = HPLM + 10% dialyzed FBS, 1.71 µM
[9] = HPLM + 10% dialyzed FBS, 5.12 µM
[10] = HPLM + 10% dialyzed FBS, 15.4 µM
[11] = HPLM + 10% dialyzed FBS, 46.1 µM
[12] = RPMI 5 mM glucose + 10% FBS, 0.000781 µM
[13] = RPMI 5 mM glucose + 10% FBS, 0.00234 µM
[14] = RPMI 5 mM glucose + 10% FBS, 0.00702 µM
[15] = RPMI 5 mM glucose + 10% FBS, 0.0211 µM
[16] = RPMI 5 mM glucose + 10% FBS, 0.0632 µM
[17] = RPMI 5 mM glucose + 10% FBS, 0.19 µM
[18] = RPMI 5 mM glucose + 10% FBS, 0.569 µM
[19] = RPMI 5 mM glucose + 10% FBS, 1.71 µM
[20] = RPMI 5 mM glucose + 10% FBS, 5.12 µM
[21] = RPMI 5 mM glucose + 10% FBS, 15.4 µM
[22] = RPMI 5 mM glucose + 10% FBS, 46.1 µM
[23] = RPMI 5 mM glucose + 10% dialyzed FBS, 0.000781 µM
[24] = RPMI 5 mM glucose + 10% dialyzed FBS, 0.00234 µM
[25] = RPMI 5 mM glucose + 10% dialyzed FBS, 0.00702 µM
[26] = RPMI 5 mM glucose + 10% dialyzed FBS, 0.0211 µM
[27] = RPMI 5 mM glucose + 10% dialyzed FBS, 0.0632 µM
[28] = RPMI 5 mM glucose + 10% dialyzed FBS, 0.19 µM
[29] = RPMI 5 mM glucose + 10% dialyzed FBS, 0.569 µM
[30] = RPMI 5 mM glucose + 10% dialyzed FBS, 1.71 µM
[31] = RPMI 5 mM glucose + 10% dialyzed FBS, 5.12 µM
[32] = RPMI 5 mM glucose + 10% dialyzed FBS, 15.4 µM
[33] = RPMI 5 mM glucose + 10% dialyzed FBS, 46.1 µM

Row | Structure (SMILES) | cell viability [1] [%] | cell viability [2] [%] | cell viability [3] [%] | cell viability [4] [%] | cell viability [5] [%] | cell viability [6] [%] | cell viability [7] [%] | cell viability [8] [%] | cell viability [9] [%] | cell viability [10] [%] | cell viability [11] [%] | cell viability [12] [%] | cell viability [13] [%] | cell viability [14] [%] | cell viability [15] [%] | cell viability [16] [%] | cell viability [17] [%] | cell viability [18] [%] | cell viability [19] [%] | cell viability [20] [%] | cell viability [21] [%] | cell viability [22] [%] | cell viability [23] [%] | cell viability [24] [%] | cell viability [25] [%] | cell viability [26] [%] | cell viability [27] [%] | cell viability [28] [%] | cell viability [29] [%] | cell viability [30] [%] | cell viability [31] [%] | cell viability [32] [%] | cell viability [33] [%]
1 | Cc1nc2cc(C(=O)N3CCC4(CC3)CC(=O)c3c(cnn3C(C)C)C4)ccc2[nH]1 | 96.7 | 159 | 125 | 124 | 116 | 135 | 134 | 119 | 112 | 135 | 60.9 | 118 | 133 | 116 | 130 | 129 | 124 | 123 | 128 | 135 | 132 | 94.2 |  |  |  |  |  |  |  |  |  |  | 
2 | CCC(C)N1\N=C/N(C1=O)C2=CC=C(C=C2)N3CCN(CC3)C4=CC=C(OC[C@H]5CO[C@@](C[N]6C=NC=N6)(O5)C7=CC=C(Cl)C=C7Cl)C=C4 (stereo partly specified) | 110 | 98.9 | 117 | 121 | 122 | 97.2 | 108 | 102 | 107 | 90.4 | 86 | 101 | 108 | 113 | 99.6 | 111 | 121 | 93.9 | 101 | 102 | 95.3 | 85.8 | 102 | 104 | 119 | 124 | 111 | 113 | 120 | 103 | 98.9 | 99.6 | 86.2
3 | COc1ccc(C(=O)c2c(C)n(CCN3CCOCC3)c3ccccc23)cc1 | 87.4 | 99.9 | 98.1 | 108 | 107 | 129 | 107 | 104 | 95.2 | 90.2 | 87.6 | 91.7 | 92.5 | 94.4 | 91.7 | 85.4 | 99.6 | 82.9 | 97.1 | 95.7 | 88.6 | 93.7 | 87.1 | 84.2 | 92.5 | 88.5 | 104 | 76.9 | 98.9 | 92 | 87.9 | 86.6 | 92
4 | CCC[S+](=O)([O-])Nc1ccc(F)c(C(=O)c2c[nH]c3ncc(Cl)cc23)c1F |  |  |  |  |  |  |  |  |  |  |  | 112 | 110 | 115 | 117 | 120 | 121 | 114 | 108 | 107 | 62.6 | 43.8 | 116 | 119 | 117 | 100 | 107 | 128 | 119 | 122 | 123 | 62.3 | 42.9
5 | O=C(Nc1c[nH]nc1-c1nc2cc(CN3CCOCC3)ccc2[nH]1)NC1CC1 | 91.3 | 111 | 113 | 95.6 | 81.1 | 102 | 104 | 104 | 97.9 | 51 | 3.89 | 85.9 | 103 | 97.1 | 85.5 | 56.3 | 55.3 | 78.7 | 84.9 | 89.4 | 61.2 | 4.23 | 88.3 | 102 | 92.6 | 93.7 | 67.1 | 66.7 | 84 | 83 | 86.7 | 54.5 | 4.36
6 | CCOC(=O)N1c2ccc(C(F)(F)F)cc2[C@@H](N(Cc2cc(C(F)(F)F)cc(C(F)(F)F)c2)C(=O)OC)C[C@H]1CC | 124 | 149 | 123 | 118 | 124 | 139 | 110 | 109 | 120 | 105 | 110 | 121 | 117 | 105 | 118 | 129 | 113 | 115 | 111 | 114 | 112 | 107 | 110 | 117 | 121 | 115 | 121 | 110 | 103 | 112 | 119 | 109 | 93.7
7 | CCOc1cc2ncc(C#N)c(Nc3ccc(OCc4ccccn4)c(Cl)c3)c2cc1NC(=O)/C=C/CN(C)C |  |  |  |  |  |  |  |  |  |  |  | 119 | 109 | 114 | 105 | 112 | 124 | 49.7 | 20.8 | 13.6 | 11.2 | 8.95 | 116 | 111 | 103 | 109 | 117 | 113 | 83.9 | 36.2 | 18.3 | 13 | 11.5
8 | O=C(CCc1ccc(O)cc1)c1c(O)cc(O)cc1O | 84.2 | 95.5 | 108 | 112 | 93.8 | 104 | 100 | 125 | 116 | 93 | 36.8 | 91.5 | 98.6 | 105 | 102 | 98 | 99.5 | 96.1 | 106 | 98.3 | 101 | 38.3 | 82.4 | 101 | 94.5 | 103 | 98.1 | 87.1 | 98.9 | 103 | 101 | 106 | 74.7
